In ChEMBL document CHEMBL1201862, “PubChem BioAssay data set” (2004):
Calls of active or inactive are those of the source. Unless noted, the rule behind the calls is not given here.

Legend:
[1] = biological target: Dual specificity protein phosphatase 3 (Homo sapiens, UniProt P51452); test: SAR VHR1 Fluorescent Assay for In Vitro dose response studies Set 3. [Related pubchem assays (depositor defined):AID1654, AID1661, AID1878]; format: functional
[2] = biological target: T1, Phospholipase D1 (Homo sapiens, UniProt Q13393); test: PLD1 inhibitor potency in cells, dose response (AID 602151); format: functional;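 also: cellular PLD1 assay in Calu-1 cells stimulated with PMA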
T1 sequence (Q13393 whole entry): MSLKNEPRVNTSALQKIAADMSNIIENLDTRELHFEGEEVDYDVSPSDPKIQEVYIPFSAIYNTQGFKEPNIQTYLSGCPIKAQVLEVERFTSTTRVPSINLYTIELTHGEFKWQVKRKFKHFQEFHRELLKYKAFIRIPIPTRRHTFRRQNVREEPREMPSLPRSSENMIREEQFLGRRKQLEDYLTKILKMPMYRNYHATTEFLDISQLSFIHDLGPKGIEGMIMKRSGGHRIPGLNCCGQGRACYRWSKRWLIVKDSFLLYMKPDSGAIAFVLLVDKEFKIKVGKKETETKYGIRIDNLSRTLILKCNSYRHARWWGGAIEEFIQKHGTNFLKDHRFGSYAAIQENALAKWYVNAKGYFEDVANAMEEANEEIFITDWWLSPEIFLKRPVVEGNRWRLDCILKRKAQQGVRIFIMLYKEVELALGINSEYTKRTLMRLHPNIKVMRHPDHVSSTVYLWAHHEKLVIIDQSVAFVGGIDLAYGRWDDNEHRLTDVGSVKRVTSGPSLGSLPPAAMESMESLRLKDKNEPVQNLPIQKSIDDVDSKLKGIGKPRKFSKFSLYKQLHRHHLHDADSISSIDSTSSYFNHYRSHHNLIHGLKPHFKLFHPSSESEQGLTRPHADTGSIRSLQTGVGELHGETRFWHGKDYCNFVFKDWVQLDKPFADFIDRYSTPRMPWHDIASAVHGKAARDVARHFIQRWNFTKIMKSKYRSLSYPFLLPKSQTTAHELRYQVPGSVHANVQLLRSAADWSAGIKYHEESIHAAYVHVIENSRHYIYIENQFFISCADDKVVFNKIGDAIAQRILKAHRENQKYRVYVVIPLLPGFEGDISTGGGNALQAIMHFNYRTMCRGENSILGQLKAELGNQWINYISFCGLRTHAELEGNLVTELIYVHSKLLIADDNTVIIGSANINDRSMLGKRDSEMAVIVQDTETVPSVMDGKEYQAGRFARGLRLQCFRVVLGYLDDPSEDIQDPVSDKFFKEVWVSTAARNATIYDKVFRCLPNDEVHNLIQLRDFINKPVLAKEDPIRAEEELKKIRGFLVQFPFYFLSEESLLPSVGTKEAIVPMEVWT

[3] = biological target: T2, Phospholipase D2 (Homo sapiens, UniProt O14939); test: PLD2 inhibitor potency in cells, dose response (AID 602147); format: functional;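 also: cellular assay in HEK293 cells overexpressing GFP-tagged PLD2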
T2 sequence (O14939 whole entry): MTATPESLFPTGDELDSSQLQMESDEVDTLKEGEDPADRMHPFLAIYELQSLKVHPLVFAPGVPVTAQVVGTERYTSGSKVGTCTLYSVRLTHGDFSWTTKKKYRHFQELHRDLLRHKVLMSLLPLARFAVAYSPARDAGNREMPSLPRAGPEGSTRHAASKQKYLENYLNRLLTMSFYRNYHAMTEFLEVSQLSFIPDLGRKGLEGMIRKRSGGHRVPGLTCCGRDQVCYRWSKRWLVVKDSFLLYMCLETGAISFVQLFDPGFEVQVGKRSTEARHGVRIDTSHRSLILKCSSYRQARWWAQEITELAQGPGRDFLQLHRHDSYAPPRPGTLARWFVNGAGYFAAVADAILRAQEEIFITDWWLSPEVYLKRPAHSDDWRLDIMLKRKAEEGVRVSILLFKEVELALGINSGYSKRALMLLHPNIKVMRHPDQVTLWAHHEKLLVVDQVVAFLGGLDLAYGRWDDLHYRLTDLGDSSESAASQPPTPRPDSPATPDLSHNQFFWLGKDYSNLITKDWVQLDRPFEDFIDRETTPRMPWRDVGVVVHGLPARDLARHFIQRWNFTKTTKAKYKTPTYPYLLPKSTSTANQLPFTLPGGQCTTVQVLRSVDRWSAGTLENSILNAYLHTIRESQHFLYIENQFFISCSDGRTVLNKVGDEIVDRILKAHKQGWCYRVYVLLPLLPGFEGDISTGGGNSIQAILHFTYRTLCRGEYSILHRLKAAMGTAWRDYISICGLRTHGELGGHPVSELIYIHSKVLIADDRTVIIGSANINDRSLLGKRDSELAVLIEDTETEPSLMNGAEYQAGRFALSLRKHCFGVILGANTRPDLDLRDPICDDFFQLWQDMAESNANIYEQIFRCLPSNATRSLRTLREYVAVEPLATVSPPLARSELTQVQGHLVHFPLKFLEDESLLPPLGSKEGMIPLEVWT

[4] = biological target: T3, Hexokinase HKDC1 (Homo sapiens, UniProt Q2TB90); test: HKDC1 hexokinase inhibitors, SAR follow-up, biochemical, set 2 (AID 588355); format: functional
T3 sequence (Q2TB90 whole entry): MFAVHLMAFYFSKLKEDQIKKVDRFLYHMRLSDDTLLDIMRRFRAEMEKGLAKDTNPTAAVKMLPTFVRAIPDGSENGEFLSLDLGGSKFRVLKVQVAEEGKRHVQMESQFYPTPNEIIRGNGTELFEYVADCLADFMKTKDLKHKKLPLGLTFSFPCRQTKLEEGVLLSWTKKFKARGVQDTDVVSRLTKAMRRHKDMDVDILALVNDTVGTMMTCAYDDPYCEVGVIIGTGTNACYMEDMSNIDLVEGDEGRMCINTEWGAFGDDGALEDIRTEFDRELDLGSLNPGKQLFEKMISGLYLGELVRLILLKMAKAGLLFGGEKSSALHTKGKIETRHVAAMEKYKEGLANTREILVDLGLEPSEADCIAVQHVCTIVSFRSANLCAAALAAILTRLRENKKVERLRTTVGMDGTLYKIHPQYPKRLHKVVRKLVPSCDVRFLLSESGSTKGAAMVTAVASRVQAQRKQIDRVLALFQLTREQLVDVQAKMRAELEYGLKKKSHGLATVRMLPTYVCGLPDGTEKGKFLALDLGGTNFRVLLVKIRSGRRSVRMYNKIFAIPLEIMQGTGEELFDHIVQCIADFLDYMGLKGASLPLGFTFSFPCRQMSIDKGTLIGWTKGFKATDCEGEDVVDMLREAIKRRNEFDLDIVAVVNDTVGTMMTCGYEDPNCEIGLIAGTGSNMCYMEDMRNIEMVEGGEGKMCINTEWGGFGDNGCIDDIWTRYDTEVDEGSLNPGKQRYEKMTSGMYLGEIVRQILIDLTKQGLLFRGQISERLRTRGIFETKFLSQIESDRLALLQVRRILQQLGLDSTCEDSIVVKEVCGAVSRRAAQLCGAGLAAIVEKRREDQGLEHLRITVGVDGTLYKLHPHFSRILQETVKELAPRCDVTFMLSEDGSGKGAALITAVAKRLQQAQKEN

[5] = biological target: Hexokinase-1 (Homo sapiens, UniProt P19367); test: HK1 enzyme inhibition by HKDC1 hits, SAR follow-up, selectivity assay for HKDC1 inhibitor project, biochemical, set 2, resazurin fluorescence coupled readout (AID 588356); format: functional
Chain of Hexokinase-1 (P19367 whole entry): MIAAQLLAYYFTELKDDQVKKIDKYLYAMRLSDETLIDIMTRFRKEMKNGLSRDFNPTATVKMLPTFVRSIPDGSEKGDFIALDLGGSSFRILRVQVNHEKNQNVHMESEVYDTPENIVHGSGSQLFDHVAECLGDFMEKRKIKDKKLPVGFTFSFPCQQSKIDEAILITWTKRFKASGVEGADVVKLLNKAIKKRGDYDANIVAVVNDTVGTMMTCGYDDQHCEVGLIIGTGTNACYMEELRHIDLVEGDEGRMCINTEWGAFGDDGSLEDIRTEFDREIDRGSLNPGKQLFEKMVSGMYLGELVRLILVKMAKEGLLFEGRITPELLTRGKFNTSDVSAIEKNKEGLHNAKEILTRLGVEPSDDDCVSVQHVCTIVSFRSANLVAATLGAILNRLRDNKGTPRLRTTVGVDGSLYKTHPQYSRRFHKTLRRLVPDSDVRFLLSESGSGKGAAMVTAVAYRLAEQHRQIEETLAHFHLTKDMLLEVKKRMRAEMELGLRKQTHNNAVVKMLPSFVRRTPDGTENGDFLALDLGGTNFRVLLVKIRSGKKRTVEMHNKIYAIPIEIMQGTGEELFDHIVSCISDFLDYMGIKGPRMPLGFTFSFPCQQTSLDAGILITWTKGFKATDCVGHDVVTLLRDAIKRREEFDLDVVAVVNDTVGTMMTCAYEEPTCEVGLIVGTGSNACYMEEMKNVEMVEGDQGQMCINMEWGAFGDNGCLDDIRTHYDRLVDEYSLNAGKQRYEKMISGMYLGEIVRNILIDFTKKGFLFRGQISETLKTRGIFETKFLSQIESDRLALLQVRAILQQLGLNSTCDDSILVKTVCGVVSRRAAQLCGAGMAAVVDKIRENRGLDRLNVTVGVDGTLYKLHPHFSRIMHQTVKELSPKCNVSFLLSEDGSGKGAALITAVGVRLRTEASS

[6] = biological target: T2, Phospholipase D2; test: PLD2 purified enzyme concentration response. [Related pubchem assays (depositor defined):AID588854]; format: functional
[7] = biological target: T1, Phospholipase D1; test: PLD1 purified enzyme concentration response. [Related pubchem assays (depositor defined):AID588854]; format: functional
[8] = system: H4; test: Inhibitors of Prion Protein 5' UTR mRNA Measured in Cell-Based System Using Plate Reader - 2078-01_Inhibitor_Dose_DryPowder_Activity. [Related pubchem assays (depositor defined):AID488894]; format: functional; conditions: Homo sapiens
[9] = system: INS1; test: protection of INS-1E cells from cytokine death, dose response, ATP luminescence, dry powder (AID 488844); format: functional, cell-based; conditions: Rattus norvegicus

Chain of Dual specificity protein phosphatase 3 (P51452 whole entry): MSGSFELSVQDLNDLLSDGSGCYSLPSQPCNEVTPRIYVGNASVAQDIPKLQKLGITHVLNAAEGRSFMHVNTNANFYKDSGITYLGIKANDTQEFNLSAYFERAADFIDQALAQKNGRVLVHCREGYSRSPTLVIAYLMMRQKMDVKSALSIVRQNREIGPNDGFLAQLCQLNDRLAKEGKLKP

In the case of `COc1ccc(-c2nnc(Nc3nc4c(F)cccc4s3)o2)c(OC)c1`, the IC50 [1] is reported as 13.7 µM (active).

With `C[C@@H](CN1CCC2(CC1)C(=O)NCN2c1ccc(F)c(F)c1)NC(=O)c1cc2cc(F)ccc2[nH]1` the IC50 [2] was 0.005 µM (active) and the IC50 [3] was 0.032 µM (active).

In the case of `CC(=O)NC1C(=O)N(CCN2CCOCC2)c2ccccc21` (centres undefined), the IC50 [4] is reported as > 80 µM (inactive) and the IC50 [5] is reported as > 80 µM (inactive).

`O=C(NCCN1CCC2(CC1)C(=O)NCN2c1ccc(Br)cc1)c1cc2cc(F)ccc2[nH]1` was tested, and the IC50 [6] was 0.028 µM (active) and the IC50 [7] was 5 µM (active).

For `COc1ccc(NC=C2C(=O)c3ccccc3C2=O)c(OC)c1`, the AC50 [8] was 1.75 µM (active).

In the case of `C[C@@H]1CN([C@@H](C)CO)C(=O)c2cccc(NC(=O)Nc3ccccc3)c2O[C@H]1CN(C)S(=O)(=O)c1ccc(F)cc1`, the AC50 [9] is reported as 61.3 µM (active).
